The source of these data is ChEMBL document CHEMBL1154248, “Matrix metalloproteinase-2 inhibitors from Clinopodium chinense var. parviflorum” (J Nat Prod, 2009).

For the assay, the target named is 72 kDa type IV collagenase (Rattus norvegicus, UniProt P33436). In words: Inhibition of gelatinolytic activity of MMP2 in rat lung homogenate after 40 mins by SDS-PAGE preincubated for 30 mins.
72 kDa type IV collagenase, sequence (P33436 whole entry): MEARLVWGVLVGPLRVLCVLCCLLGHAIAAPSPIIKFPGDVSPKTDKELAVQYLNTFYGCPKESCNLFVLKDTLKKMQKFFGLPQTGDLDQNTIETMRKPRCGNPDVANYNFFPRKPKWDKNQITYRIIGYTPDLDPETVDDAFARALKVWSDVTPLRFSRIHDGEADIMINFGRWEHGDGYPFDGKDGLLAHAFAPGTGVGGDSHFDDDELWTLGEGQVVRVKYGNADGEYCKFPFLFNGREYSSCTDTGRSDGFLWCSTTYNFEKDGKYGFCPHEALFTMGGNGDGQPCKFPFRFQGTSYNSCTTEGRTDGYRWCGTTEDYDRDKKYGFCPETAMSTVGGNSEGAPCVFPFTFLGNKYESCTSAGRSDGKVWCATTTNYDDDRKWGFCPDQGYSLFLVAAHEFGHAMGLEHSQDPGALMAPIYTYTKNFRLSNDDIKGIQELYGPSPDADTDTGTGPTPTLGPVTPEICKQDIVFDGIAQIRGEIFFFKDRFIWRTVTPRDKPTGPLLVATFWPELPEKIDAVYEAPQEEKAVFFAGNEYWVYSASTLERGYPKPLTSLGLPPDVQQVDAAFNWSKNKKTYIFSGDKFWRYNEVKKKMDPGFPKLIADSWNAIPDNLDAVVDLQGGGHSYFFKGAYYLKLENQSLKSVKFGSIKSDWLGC

As a reminder, the IC50 is the midpoint of a concentration-inhibition curve. `O=C(/C=C/c1ccc(O)cc1)O[C@H](Cc1ccc(O)c(O)c1)C(=O)O` [CLINOPODIC ACID A]: the IC50 was above 100 µM.

With `COc1cc(C[C@@H](OC(=O)/C=C/c2ccc(O)c(O)c2)C(=O)O)ccc1O` [CLINOPODIC ACID B], the IC50 is above 100 µM.

Turning to `O=C(/C=C/c1ccc2c(c1)O[C@H](C(=O)O)[C@H](c1ccc(O)c(O)c1)O2)O[C@H](Cc1ccc(O)c(O)c1)C(=O)O` [CLINOPODIC ACID C], half-maximal inhibition (IC50) required 3.26 µM.

Take `O=C(/C=C/c1ccc2c(c1)O[C@@H](C(=O)O)[C@@H](c1ccc(O)c(O)c1)O2)O[C@H](Cc1ccc(O)c(O)c1)C(=O)O` [CLINOPODIC ACID E]: the IC50 is above 100 µM.

The molecule `COc1cc(C[C@@H](OC(=O)/C=C/c2ccc3c(c2)O[C@@H](C(=O)O)[C@@H](c2ccc(O)c(O)c2)O3)C(=O)O)ccc1O` [CLINOPODIC ACID F] had an IC50 above 100 µM.

For `COc1cc(C[C@@H](OC(=O)/C=C/c2ccc(O)c3c2[C@H](C(=O)O)[C@@H](c2ccc(O)c(OC)c2)O3)C(=O)O)ccc1O` [CLINOPODIC ACID H], the IC50 was above 100 µM.

In the case of `O=C(/C=C/c1ccc(O)c2c1[C@H](C(=O)O)[C@@H](c1ccc(O)c(O)c1)O2)O[C@H](Cc1ccc(O)c(O)c1)C(=O)O` [LITHOSPERMIC ACID], half-maximal inhibition (IC50) was put at 10.2 µM.

In the case of `COC(=O)[C@@H](Cc1ccc(O)c(O)c1)OC(=O)/C=C/c1ccc(O)c(O)c1` [METHYL ROSMARINATE], the half-maximal inhibitory concentration (IC50) is above 100 µM.

Molecule `O=C(/C=C/c1ccc(O)c(O)c1)O[C@H](Cc1ccc(O)c(O)c1)C(=O)O` [ROSMARINIC ACID] registered an IC50 of 27.2 µM.
